Laboratory results: patent publication US7090846B2 (priority 1999, dated 2006)

Key:
MCF-7, or PC3 cells = conditions: tumor cell cultures, in vitro; for inhibition on the colony formation: serial dilutions, vs untreated control; for comparison among the conjugates: inhibition on the colony formation: ranking among tested conjugates
Description: (§1) Cell Lines Used in the Experiments: • P388 mouse lymphocytic leukemia cell line, originated from Arthur D. Little Inc., Cambridge, Mass., USA, in vitro established in the National Institute of Oncology, Budapest, Hungary (Cancer Treat. Rep. 1986; 70: 279–284); • MCF-7 humane breast cancer cell line, originated from American Type Culture Collection; • PC3 humane prostate cancer cell line, originated from American Type Culture Collection;
MCF-7, or PC3 cells were plated into petri dishes, then in adequate medium and conditions, were incubated the cells with serial dilutions of the different polycation bioconjugates, prepared according to the invention. The colonies, consisting minimum 30 cells were then counted and the obtained values of three parallel petri dishes were averaged. Relative cloning efficiency was calculated by taking the control values as 100 per cent. (Cancer Detection and Prevention, 20(2): 146–152, 1996).

[1] = system: tumor cell cultures (P388, MCF-7, PC3); conditions: in vitro; for inhibition on the cell proliferation: serial dilutions, vs untreated control; for comparison among the conjugates: inhibition on the cell proliferation: ranking among tested conjugates
Text: as §1
Sulforodamine B (SRB) assay: approximately one to two thousand cells were put into each well of the special, small plastic tray (micro-well-plates). The cells were incubated in adequate medium and conditions and after adhering to the surface, were treated with serial dilutions of the different polycation bioconjugates, prepared according to the invention. At the end of the experiment the cells were fixed, stained with SRB, and the optical density, which is in direct proportion to the cell proliferation, was read in a CLS 962 ELISA microplate reader. Relative inhibition of proliferation was calculated by taking the control values as 100 per cent. (Cancer Detection and Prevention, 20(2): 146–152, 1996).
Cell counting method, with Neubauer-type chamber: in suspension cultures of exponentially growing cells, which were in adequate medium and conditions, were treated with serial dilutions of the different polycation bioconjugates, prepared according to the invention, and 24- and 48 hours following the treatment the cells were stained with tripan-blue, the treated and control cells were counted in a modified Neubauer-type hemocytometer chamber. Relative inhibition of proliferation was calculated by taking the control values as 100 per cent.

[2] = system: transplantable rodent tumors (P-388 lymphoid leukemia, S-180 sarcoma); conditions: mouse, in vivo
Description: The tumor growth inhibitory effect of the polycation bioconjugates was studied on the following transpalatable rodent tumors: • P-388 lymphoid leukemia cells, originated from Cambridge, Mass., USA, were transplanted i.p. and s.c. into animals: BDF1 inbred male mice, weighing 22–24 g, specified pathogen free (SPF) breedings; • S-180 sarcoma, originated from Chester Beatty I., London, were transplanted s.c. into animals: BDFI inbred male mice, weighing 22–24 g, specified pathogen free (SPF) breedings.

For “cholesterol-hemisuccinyl-poly-(ε)-L-lysine-hydrogen-bromide”, the “inhibition on the colony formation” value (MCF-7, or PC3 cells) was “dose dependent inhibition”, the “inhibition on the cell proliferation” value [1] was “dose dependent inhibition” and the “inhibitory effect on transplantable rodent tumors (mean tumor volumes, tumor growth curves)” value [2] was “significant inhibitory effect”.
With “palmitoyl-poly-(ε)-L-lysine-hydrogen-bromide” the “comparison among the conjugates: inhibition on the colony formation” value (MCF-7, or PC3 cells) was “most effective inhibition”, the “inhibition on the colony formation” value (MCF-7, or PC3 cells) was “dose dependent inhibition” and the “comparison among the conjugates: inhibition on the cell proliferation” value [1] was “most effective inhibition”. For the same substance, the “inhibition on the cell proliferation” value [1] was “dose dependent inhibition” and the “inhibitory effect on transplantable rodent tumors (mean tumor volumes, tumor growth curves)” value [2] was “significant inhibitory effect”.
With “poly-(ε)-L-lysine-cisplatin-hydrogen-bromide” the “comparison among the conjugates: inhibition on the colony formation” value (MCF-7, or PC3 cells) was “most effective inhibition”, the “inhibition on the colony formation” value (MCF-7, or PC3 cells) was “dose dependent inhibition” and the “comparison among the conjugates: inhibition on the cell proliferation” value [1] was “most effective inhibition”. For the same substance, the “inhibition on the cell proliferation” value [1] was “dose dependent inhibition”.
